These results are taken from PubChem BioAssay AID1259411 (Chemical Carcinogenesis Research Information System (CCRIS), 2018).

The test system of this data set is rodent carcinogenicity bioassays, tumor incidence. Kind of data set: CCRIS carcinogenicity studies. The method in brief:
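NCI-built, expert-reviewed records of carcinogenicity and related test outcomes (mutagenicity, tumor promotion/inhibition) compiled from published and report sources, historical span 1985-2011, not updated.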

Activity calls are given as the source filed them. The rule behind the calls is not given here.

For `CC(=O)O[C@]1(C(C)=O)CC[C@H]2[C@@H]3C[C@H](C)C4=CC(=O)CC[C@]4(C)[C@H]3CC[C@@]21C`, the carcinogen call is “active; positive” (Species: DOG, Route: INTRAMUSCULAR, Tumor Site: Type of Lesion: MAMMARY GLAND) and “inactive; negative” (Species: MONKEY, Strain/Sex: CYNOMOLGUS/FEMALE, Route: ORAL, Dose: 0, 2.5 MG/WOMAN/D HUMAN DOSE EQUIVALENT IN DIET FOR 36 MONTHS BEGINNING 3 MONTHS POST BILATERAL OVARIECTOMY (STUDY DURAT).

Take `CCSC(C)CC1CC(=O)C(/C(CC)=N/OC/C=C/Cl)=C(O)C1` (configuration not stated): the carcinogen call is, setting by setting: (Species: Mouse, Strain/Sex: ???/Female (50/group), Route: Oral, Dose: 0, 20, 200, 1,000, 2,000 ppm increased to 3,000 ppm after 15th wk in diet for 78 wk, Dose: 0, 20, 200, 1,000, 2,000 ppm increased to 3,000 ppm after 15th wk in diet for 78 wk) “inactive; negative (study details not given in source; purity 83.3%)”; (Species: Mouse, Strain/Sex: ???/Male (50/group), Route: Oral, Dose: 0, 20, 200, 1,000, 2,000 ppm increased to 3,000 ppm after 15th wk in diet for 78 wk, Dose: 0, 20, 200, 1,000, 2,000 ppm increased to 3,000 ppm after 15th wk in diet for 78 wk) “inactive; negative (study details not given in source; purity 83.3%)”.

On to `CCN=[N+]([O-])CC`, for which the carcinogen call (Species: RAT, Route: ORAL, Tumor Site: Type of Lesion: LIVER: HEMANGIOENDOTHELIOMA) is “active; positive”; the carcinogen call (Species: RAT, Route: SUBCUTANEOUS, Tumor Site: Type of Lesion: MAMMARY GLAND, BRAIN (OLFACTORY BULB): NEUROBLASTOMA, BRAIN: GLIOMA HEMATOPOIETIC SYSTEM (LEUKEMIA), Tumor Site: Type of Lesion: MAMMARY GLAND, BRAIN (OLFACTORY BULB): NEUROBLASTOMA, BRAIN: GLIOMA HEMATOPOIETIC SYSTEM (LEUKEMIA)) was “active; positive”; the carcinogen call (Species: RAT, Strain/Sex: F344/MALE, Route: ORAL, Dose: 0, 14, 55 MG/ML IN A NEUTRAL DEIONIZED DRINKING WATER SOLUTION 5 D/WK FOR 30 WK (TOTAL DOSE 42; 132 MG) (STUDY DURATION:, Dose: 0, 14, 55 MG/ML IN A NEUTRAL DEIONIZED DRINKING WATER SOLUTION 5 D/WK FOR 30 WK (TOTAL DOSE 42; 132 MG) (STUDY DURATION:, Tumor Site: Type of Lesion: LIVER: CARCINOMA, HEMANGIOSARCOMA, ESOPHAGUS: TUMOR, NASAL CAVITY: SQUAMOUS CELL CARCINOMA, ADENOCARCINOMA, Tumor Site: Type of Lesion: LIVER: CARCINOMA, HEMANGIOSARCOMA, ESOPHAGUS: TUMOR, NASAL CAVITY: SQUAMOUS CELL CARCINOMA, ADENOCARCINOMA) is “active; positive”.

For the compound `S=C=NCCc1ccccc1`, the carcinogen call (Species: RAT, Strain/Sex: F344/MALE, Route: DIET (ORAL), Dose: 0.1% FOR 12 WK (STUDY DURATION: 48 WK)) was “inactive; negative (bladder hyperplasias observed)”; the carcinogen call (Species: RAT, Strain/Sex: F344/MALE, Route: DIET (ORAL), Dose: 0.1% FOR 24 WK (STUDY DURATION: 48 WK)) was “inactive; negative (bladder hyperplasias observed)”; the carcinogen call (Species: RAT, Strain/Sex: F344/MALE, Route: DIET (ORAL), Dose: 0.1% FOR 48 WK (STUDY DURATION: 48 WK)) is “inactive; negative (bladder hyperplasias and dysplasias observed)”; the carcinogen call (Species: RAT, Strain/Sex: F344/MALE, Route: ORAL, Dose: 0.1% IN DIET FOR 32 WK, THEN SWITCHED TO BASAL DIET FOR 16 WK (STUDY DURATION: 48 WK), Tumor Site: Type of Lesion: URINARY BLADDER: CARCINOMA) is “active; positive”; the carcinogen call (Species: RAT, Strain/Sex: F344/MALE, Route: ORAL, Dose: 0.1% IN DIET FOR 48 WK (STUDY DURATION: 48 WK), Tumor Site: Type of Lesion: URINARY BLADDER: CARCINOMA) is “active; positive”.

For `CC(=O)Nc1ccc(C(=O)CCl)cc1`, the carcinogen call by setting is: (Species: MOUSE, Strain/Sex: B6C3F1/FEMALE, Route: ORAL, Dose: 0, 5000, 10000 PPM IN DIET, Dose: 0, 5000, 10000 PPM IN DIET) “inactive; negative”; (Species: MOUSE, Strain/Sex: B6C3F1/MALE, Route: ORAL, Dose: 0, 5000, 10000 PPM IN DIET, Dose: 0, 5000, 10000 PPM IN DIET) “inactive; negative”; (Species: RAT, Strain/Sex: F344/FEMALE, Route: ORAL, Dose: 0, 1000, 2000 PPM IN DIET, Dose: 0, 1000, 2000 PPM IN DIET) “inactive; negative”; (Species: RAT, Strain/Sex: F344/MALE, Route: ORAL, Dose: 0, 1000, 2000 PPM IN DIET, Dose: 0, 1000, 2000 PPM IN DIET) “inactive; negative”.

With `CCCCCN(N=O)C(N)=O`, the carcinogen call (Species: RAT, Strain/Sex: F344/FEMALE, Route: GAVAGE, Dose: 0, 16 MG/ML (TOTAL DOSE 0; 2 MMOL) IN 2 ML ETHYL ACETATE AND CORN OIL (1:2) 2/WK FOR 50 WK (STUDY DURATION: LIFETIME), Dose: 0, 16 MG/ML (TOTAL DOSE 0; 2 MMOL) IN 2 ML ETHYL ACETATE AND CORN OIL (1:2) 2/WK FOR 50 WK (STUDY DURATION: LIFETIME), Tumor Site: Type of Lesion: FORESTOMACH: SQUAMOUS CELL CARCINOMA, LUNG: TUMOR, UTERUS: TUMOR, Tumor Site: Type of Lesion: FORESTOMACH: SQUAMOUS CELL CARCINOMA, LUNG: TUMOR, UTERUS: TUMOR) was “active; positive”; the carcinogen call (Species: RAT, Strain/Sex: F344/FEMALE, Route: GAVAGE, Dose: 0, 16 MG/ML IN 0.2 ML ETHYL ACETATE AND CORN OIL 2/WK FOR 50 WK (STUDY DURATION: LIFESPAN), Tumor Site: Type of Lesion: FORESTOMACH: TUMOR, LUNG: TUMOR, UTERUS: TUMOR, Tumor Site: Type of Lesion: FORESTOMACH: TUMOR, LUNG: TUMOR, UTERUS: TUMOR) is “active; positive”; the carcinogen call (Species: RAT, Strain/Sex: F344/MALE, Route: GAVAGE, Dose: 0, 16 MG/ML (TOTAL DOSE 0; 2 MMOL) IN 2 ML ETHYL ACETATE AND CORN OIL (1:2) 2/WK FOR 50 WK (STUDY DURATION: LIFETIME), Dose: 0, 16 MG/ML (TOTAL DOSE 0; 2 MMOL) IN 2 ML ETHYL ACETATE AND CORN OIL (1:2) 2/WK FOR 50 WK (STUDY DURATION: LIFETIME), Tumor Site: Type of Lesion: FORESTOMACH: SQUAMOUS CELL CARCINOMA, LUNG: TUMOR, BODY CAVITY: MESOTHELIOMA, Tumor Site: Type of Lesion: FORESTOMACH: SQUAMOUS CELL CARCINOMA, LUNG: TUMOR, BODY CAVITY: MESOTHELIOMA) was “active; positive”; the carcinogen call (Species: RAT, Strain/Sex: F344/MALE, Route: GAVAGE, Dose: 0, 16 MG/ML IN 0.2 ML ETHYL ACETATE AND CORN OIL 2/WK FOR 50 WK (STUDY DURATION: LIFESPAN), Tumor Site: Type of Lesion: FORESTOMACH: TUMOR, LUNG: TUMOR: PERITONEUM: MESOTHELIOMA, SKIN: TUMOR, Tumor Site: Type of Lesion: FORESTOMACH: TUMOR, LUNG: TUMOR: PERITONEUM: MESOTHELIOMA, SKIN: TUMOR) was “active; positive”.

For the compound `C[C@]12CC[C@@H]3c4ccc(O)cc4CC[C@H]3[C@@H]1C[C@@H](O)C2=O`, the carcinogen call (Species: HAMSTER, Strain/Sex: SYRIAN/MALE, Route: SUBCUTANEOUS IMPLANT, Dose: 0, 20 MG IN PELLETS IMPLANTED EVERY 2.5 MO FOR 9 MO (STUDY DURATION: 9 MO), Tumor Site: Type of Lesion: KIDNEY: TUMOR) is “active; positive”.

Consider `CCN(CC)C(=S)S`, for which the carcinogen call was “inactive; negative” (Species: MOUSE, Strain/Sex: B6C3F1/FEMALE, Route: ORAL, Dose: 0, 500, 4000 PPM IN DIET, Dose: 0, 500, 4000 PPM IN DIET); “inactive; negative” (Species: MOUSE, Strain/Sex: B6C3F1/MALE, Route: ORAL, Dose: 0, 500, 4000 PPM IN DIET, Dose: 0, 500, 4000 PPM IN DIET); “inactive; negative” (Species: RAT, Strain/Sex: F344/FEMALE, Route: ORAL, Dose: 0, 1250, 2000 PPM IN DIET, Dose: 0, 1250, 2000 PPM IN DIET); “inactive; negative” (Species: RAT, Strain/Sex: F344/MALE, Route: ORAL, Dose: 0, 1250, 2000 PPM IN DIET, Dose: 0, 1250, 2000 PPM IN DIET).

Regarding `O=P1(O)OP(=O)(O)OP(=O)(O)O1`, the carcinogen call was “inactive; negative” (Species: RAT, Strain/Sex: F344/FEMALE, Route: ORAL, Dose: 0, 1.5, 3% IN DIET FOR DURATION OF STUDY (STUDY DURATION: 108 WK), Dose: 0, 1.5, 3% IN DIET FOR DURATION OF STUDY (STUDY DURATION: 108 WK)) and “inactive; negative” (Species: RAT, Strain/Sex: F344/MALE, Route: ORAL, Dose: 0, 1.5, 3% IN DIET FOR DURATION OF STUDY (STUDY DURATION: 108 WK), Dose: 0, 1.5, 3% IN DIET FOR DURATION OF STUDY (STUDY DURATION: 108 WK)).
